What was measured:
Format in all cases: in vivo
[1] = system: bradykinin-induced paw oedema; assay: Bradykinin oedema in mouse paw; settings: mice, bradykinin 3 nmol/paw intraplantar, captopril pre-treatment; 50 mg/kg orally 1 h before; 10 min to 48 h
Experimental: The test used below is described by Cunha et. al. in the publication Life Sci. 70:159-169, 2001. Male 25 g-35 g mice were slightly sedated with ether and were injected 50 μl saline containing bradykinin (BK, 3 nmol/paw), intraplantar, in the right paw. The left paw received the same volume of saline and was taken as negative control. The swelling was measured with a plethysmometer (manufacturer: Ugo Basile, Italy) along various time points intervals after the injection of the phlogistic agent. The difference between the volumes of the right and the left paw were quantified (in ml) and taken as an index of oedema. One hour before the test the animals were systemically treated (orally) with 50 mg/kg of alpha-humulene or with trans-caryophyllene. The animals were pre-treated with 5 mg/kg of captopril, injected subcutaneously, 1 hour before the test, in order to avoid degradation of […]. Graphs 3A and 3B below compare the inhibition of the volume of the oedema by administration of alpha-humulene (3A) or trans-caryophyllene (3B). Oedema volume measurement time intervals were 10, 20, 30, 60, and 120 min, 24 h and 48 h. Each point represents the average of 5 animals, and the vertical bars the mean standard error deviation.

[2] = system: PAF-induced oedema; assay: Platelet aggregation factor (PAF) oedema in mouse paw; settings: mice, PAF 3 nmol/paw intraplantar; 50 mg/kg orally 1 h before; 30 to 120 min
Experimental: The test used below is described by Cunha et. al. in the publication Life Sci. 70:159-169, 2001. Male 25 g-35 g mice were slightly sedated with ether and were injected 50 μl saline containing platelet aggregation factor (PAF, 3 nmol/paw), intraplantar, in the right paw. The left paw received the same volume of saline and was taken as negative control. The swelling was measured with a plethysmometer (manufacturer: Ugo Basile, Italy) along various time intervals after the injection of the phlogistic agent. The difference between the volumes of the right and the left paw were quantified (in ml) and taken as an index of oedema. One hour before the test the animals were systemically treated (orally) with 50 mg/kg of alpha-humulene or trans-caryophyllene. Graph 5 below compares the inhibition of the volume of the oedema by administration of alpha-humulene (SA) and trans-caryophyllene (5B). Oedema volume measurement time intervals were 30, 45, 60, and 120 min. Each point represents the average of 5 animals, and the vertical bars the mean standard deviation.

[3] = system: arachidonic acid ear oedema; assay: Arachidonic acid oedema in mouse ear; settings: mice, arachidonic acid 2 mg/ear; topical ointment 0.025 to 0.2% caryophyllene applied 60 minutes before
Experimental: The ear oedema in the test below was measured according to Calixto et. al. in the publication Prostaglandins, 5: 515-526, 1991, with minor modifications. Male 25 g-35 g mice, in a first group, were topically applied, in the inner surface of the ears, an ointment comprising a range from 0.025 to 0.2% alpha-humulene or trans-caryophyllene. In the positive control group, the animals were topically applied 0.05 mg of phenidone per ear. After 60 minutes, the animals received 20 μl of arachidonic acid (2 mg/ear), dissolved in acetone, in the inner surface of the right ear. The oedema was measured using a digital micrometer, and the responses were expressed as μm, the difference between the ear thickness before and after the application of arachidonic acid. The responses of the animals treated with caryophyllenes were compared to those observed in the control group animals, treated with base ointment. Graphs 6A and 6B below compare the inhibition of the volume of the oedema by topic administration of alpha-humulene (6A) and trans-caryophyllene (6B). Oedema volume measurement was performed after application of 0.025%, 0.05%, 0.1, and 0.2% caryophyllene content ointment, compared to the oedema volume caused by the application of phenidone and arachidonic acid (C). Each point represents the average of 5 animals, and the vertical bars the mean standard error deviation.

[4] = system: COX-2; assay: Expression of enzyme COX-2 in carrageenin-injected rat paw (Western blot); settings: 50 mg/kg orally 60 minutes before carrageenin 300 μg/paw, subcutaneous paw tissue
Experimental: The expression of enzymes COX-2 and iNOS were determined by Western blot according to the methodology described by Medeiros et. al. in the publication Circ Res. 28:1375-1382, 2004. Male 160-180 g rats were orally given 50 mg/kg of trans-caryophyllene. Animals treated with 0.9% (0.1 ml/10 g) saline were used as control. Another group of animals was treated with 0.5 mg/kg dexamethasone, subcutaneously, 4 hours before the test, and used as positive control. After 60 minutes, the animals received intraplantar injections of 100 μl of carrageenin (300 μg/paw) and were sacrificed after 180 minutes, and subcutaneous paw tissue was removed […] after the carrageenin injection. […] The protein concentration was determined by the Bradford method (BioRad Laboratories Inc. kit, Milan, Italy). […] The bands thus obtained were quantified using a chemoluminescence kit and densitometry analysis (relative units) in radiographic films. Graph 10 below (each result represents the average of 5 animals, and the vertical bars the mean standard error deviation) compares inhibition of expression of the COX2 enzymes, obtained by the administration of alpha-humulene and trans-caryophyllene, when evaluated in the subcutaneous tissue or the paw injected with carrageenin, compared to the expression of COX2 induced by carrageenin obtained by treatment with dexomethasone.

Compound: C/C1=C\CC/C(C)=C/CC(C)(C)/C=C/C1 [alpha-humulene]
- bradykinin-induced paw oedema [1]: markedly reduced bradykinin-induced paw oedema
- PAF-induced oedema formation [2]: markedly reduced PAF-induced oedema formation
- arachidonic acid ear oedema formation [3]: markedly reduced oedema formation, in a dose-dependent manner
- expression of enzymes COX2 induced by carrageenin in the paws of rats [4]: markedly inhibited the expression

Compound: C=C1CC/C=C(\C)CC[C@@H]2[C@@H]1CC2(C)C [trans-caryophyllene]
- bradykinin-induced paw oedema [1]: markedly reduced bradykinin-induced paw oedema
- PAF-induced oedema formation [2]: markedly reduced PAF-induced oedema formation
- arachidonic acid ear oedema formation [3]: markedly reduced oedema formation, in a dose-dependent manner
- expression of enzymes COX2 induced by carrageenin in the paws of rats [4]: markedly inhibited the expression

Source: US20080280996A1, “Use of Carophyllenes in the Manufacture of Medicaments and Treatment of Bodily Conditions of Inflammation and Inflammatory Pain” (priority 2004, published 2008)
